Test results from US20090209610A1, “Polymorphic form of 6-(4-chlorophenyl)-2,2-dimethyl-7-Phenyl-2,3-Dihydro-1h-Pyrrolizin-5-Ylacetic Acid” (Merckle GmgH, priority 2005, published 2009).

What was measured:
[1] = particle size measurement by laser diffraction (Helios-Sympatec); format: physicochemical; conditions: for Particle size distribution: Table 3, overall range
Method: Polymorph B has a narrow particle size distribution: d10-d90=1.8 μm-15.9 μm. The average particle size is 6.7 μm. Particle size measurements were carried out by means of laser diffraction spectra using the Helios-Sympatec system: dry disperser RODOS; focal length 50 mm.

[2] = molecular target: cyclooxygenase (CO) and lipoxygenase (LO); assay: inhibitory effect on the enzymes cyclooxygenase and lipoxygenase; format: biochemical; conditions: ratio of IC50 lipoxygenase to IC50 cyclooxygenase
Source text: It is notable for a strong analgesic effect and for a similar inhibitory effect on the enzymes cyclooxygenase (CO) and lipoxygenase (LO) (IC50LO/IC50CO˜1). It can therefore be used in the treatment of disorders associated with a change in arachidonic acid metabolism. Particular mention should be made of rheumatoid diseases and the prevention of allergy-induced disorders. […] In addition, it can be used for the treatment of hypercholesterolaemia.

[3] = stability of the crystalline form during drying and storage, chemical stability; format: physicochemical
Source text: Polymorph B has a crystalline structure and high purity. Owing to the crystalline structure, polymorph B is stable during drying and storage. No phase transitions and no secondary aggregations are to be observed.
Surface phenomena such as electrostatic charging, adhesion, adsorption etc. occur to a distinctly smaller extent by comparison with polymorph A. The crystal structure additionally results in a high chemical stability. Owing to the narrow particle size distribution compared with polymorph A, it is possible to employ polymorph B directly for producing pharmaceutical formulations. An additional grinding step is unnecessary.

Compound | Particle size distribution [1] | IC50LO/IC50CO [2] | average particle size ([1]; laser diffraction) [μm] | particle size distribution d10 ([1]; laser diffraction, dry disperser RODOS, focal length 50 mm) [μm] | stability during drying and storage ([3]; no phase transitions and no secondary aggregations observed) | chemical stability ([3]; resulting from the crystal structure)
CC1(C)Cc2c(-c3ccccc3)c(-c3ccc(Cl)cc3)c(CC(=O)O)n2C1 [Polymorph A, 6-(4-chlorophenyl)-2,2-dimethyl-7-phenyl-2,3-dihydro-1H-pyrrolizin-5-ylacetic acid] | 2-500 μm | – | – | – | – | –
CC1(C)Cc2c(-c3ccccc3)c(-c3ccc(Cl)cc3)c(CC(=O)O)n2C1 [Polymorph B, 6-(4-chlorophenyl)-2,2-dimethyl-7-phenyl-2,3-dihydro-1H-pyrrolizin-5-ylacetic acid] | 0.5-70 μm | ~1 | 6.7 | 1.8 | stable | high
